Laboratory results from US6909001B2 (Pharmacia Corporation, priority 2002, dated 2005).

Key:
[1] = test system: LPS-induced TNFα production; experiment: Lipopolysaccharide (LPS)-Induced TNFα Production (Rat LPS Assay); format: in vivo; conditions: at 20 mpk (IP)
endotoxin-induced shock = conditions: murine model of endotoxin-induced shock; cited from earlier work
adjuvant arthritis = conditions: rat; cited from earlier work
[2] = test system: collagen-induced arthritis; conditions: mouse; cited from earlier work
MK-2 = conditions: cited from earlier work
granulomas = conditions: laboratory rats; cited from earlier work

SMILES: N#Cc1c(N)nc2c(c1N)Cc1ccc(OCCN)cc1O2 [Example 12, 2,4-diamino-8-(2-aminoethoxy)-5H-chromeno[2,3-b]pyridine-3-carbonitrile]
- Rat LPS Assay inhibition [1]: 88%

SMILES: C[S+]([O-])c1ccc(-c2nc(-c3ccncc3)c(-c3ccc(F)cc3)[nH]2)cc1 (stereo not drawn) [SB203580]
- mortality (endotoxin-induced shock): reduce mortality
- development of adjuvant arthritis (adjuvant arthritis): inhibit the development
- development of collagen-induced arthritis [2]: inhibit the development
- inhibition of activation of MK-2 (MK-2): inhibit activation of MK-2

SMILES: Nc1nccc(-c2c(-c3ccc(F)cc3)ncn2C2CCNCC2)n1 [SB 220025]
- vascular density of granulomas (granulomas): significant dose-dependent decrease in vascular density of granulomas
